Data taken from patent US10677783B2, “Method for evaluating effect of cytokine on metabolic activity of cytochrome P450, and drug screening method” (Corning Incorporated, priority 2012, dated 2020).

System: CYP3A4
Experiment: CYP3A4 mRNA expression by RT-qPCR in spheroid-shaped FLC-4 cells (example, MICRO-SPACE)
Assay type: cell-based, human
Text: A plurality of culture chambers 10a are formed on the bottom culture surface of each well 21a. Each culture chamber 10a includes culture rooms 11a each having the equivalent diameter D of 200 μm and the height H of 100 μm. The width W of each wall 12a is 10 μm.
As cells to be cultured, FLC-4 cells which are established hepatocyte cell lines […] were used.
As a culture medium, a DMEM/F 12 culture medium containing 10% fetal bovine serum (FBS) was used. A cell suspension was adjusted at a cell seeding density of 16×10^5 cells/mL.
The cells were cultured in a CO2 incubator for 10 to 11 days. The culture medium was replaced once every three days.
The total amount of old culture medium was removed from each well by using a pipette (culture medium removing process).
A test solution or a control solution was added to each well (test solution addition process).
The cells were incubated in a CO2 incubator for eight hours, 24 hours, or 48 hours at 37° C. (contact process).
The test solution was obtained in such a manner that the cytokine was dissolved at each concentration shown in Table 1 in a DMEM/F12 solution (DMEM/E12 FBS(−)) containing no serum.
In an RNA extraction, one sample corresponding to two wells 21a of the culture plate 1a was extracted according to the protocol of NucleoSpin® RNAII (Macherey-Nagel). Only the portion to be subjected to Dnase treatment was modified, and DNaseI recombinant, RNase-free (Roche, Branchburg, N.J., USA) was used. The total RNA underwent reverse transcription reaction using High-Capacity cDNA Reverse Transcription Kits (Applied. Biosystems, Foster City, Calif., USA) and an attached random hexamer primer, and the first strand cDNA was synthesized.
The analysis was made using a total amount of 20 μL of reaction liquid containing 9.6 μL of EagleTaq Master Mix with ROX (Roche, Branchburg, N.J., USA), 0.96 μL of 20× Assays-on-Demand™ Gene Expression Assay Mix (Applied Biosystems), 7.1 μL of sterilized MiliQ water, and 1.8 μL of cDNA diluted by a factor of 5, and the reaction liquid was measured by Real-time PCR.

Compound | value of the metabolic function of CYP3A4 (mRNA expression level), third test solution versus second test solution (10 ng/mL EGF + 5 μM Gefitinib vs 10 ng/mL EGF alone, FIG. 20) | determination of the drug's effect on the drug-metabolizing function of the cytochrome P450 (10 ng/mL EGF + 5 μM Gefitinib, first to third test solutions compared) | gene expression level of CYP3A4 versus contact time (spheroid-shaped established hepatocyte cell line, contact for 0, four and eight hours, FIG. 9)
COc1cc2ncnc(Nc3ccc(F)c(Cl)c3)c2cc1OCCCN1CCOCC1 [Gefitinib, reference compound] | three times higher | restores the drug-metabolizing function of the cytochrome P450 | 
interleukin-1β |  |  | decreases over time
